Measured values as given in patent US9113629B2, “4-amino-6-(4-substituted-phenyl)-picolinates and 6-amino-2-(4-substituted-phenyl)-pyrimidine-4-carboxylates and their use as herbicides” (DOW AGROSCIENCES LLC, priority 2013, dated 2015).
Read-outs that look alike come from different tables or passages of the source.

Assays:
[1] = test system: Key Grass and Sedge Weeds as well as Grass Crops; assay: Post-emergent Test II herbicidal activity (Table 6); assay type: in vivo; conditions: post-emergence, 336 h; for pest or weed control at 70 g/ha: 70 g ai/ha; for pest or weed control at 140 g/ha: 140 g ai/ha
Method in brief: (§1)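 Visual injury ratings (0 = no injury, 100 = complete kill) were taken 14 d after treatment, relative to untreated plants. Seedlings at the first–second true leaf stage received overhead spray at 187 L/ha; the highest rate was serially diluted to ½×, ¼×, ⅛× and 1/16×.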

[2] = test system: Key Broadleaf Weed and Crop Species; assay: Post-emergent Test II herbicidal activity (Table 5); assay type: in vivo; conditions: post-emergence, 336 h, 14 days after application; for pest or weed control at 70 g/ha: application rate 70 g ai/ha; for pest or weed control at 140 g/ha: application rate 140 g ai/ha
Method in brief: as §1

[3] = CYPES: yellow nutsedge (Cyperus esculentus), read-out: Visual Growth Reduction (%) 14 Days After Application, CYPES
[4] = DIGSA: crabgrass (Digitaria sanguinalis), read-out: Visual Growth Reduction (%) 14 Days After Application, DIGSA
[5] = ECHCG: barnyardgrass (Echinochloa crus-galli), read-out: Visual Growth Reduction (%) 14 Days After Application, ECHCG
[6] = ORYSA: rice (Oryza sativa), crop, read-out: Visual Growth Reduction (%) 14 Days After Application, ORYSA
[7] = SETFA: giant foxtail (Setaria faberi), read-out: Visual Growth Reduction (%) 14 Days After Application, SETFA
[8] = SORVU: grain sorghum (Sorghum vulgare), read-out: Visual Growth Reduction (%) 14 Days After Application, SORVU
[9] = TRZSS (wheat, Triticum aestivum), crop, read-out: Visual Growth Reduction (%) 14 Days After Application, TRZSS
[10] = ZEAMX: maize, corn (Zea mays), crop, read-out: Visual Growth Reduction (%) 14 Days After Application, ZEAMX
[11] = ABUTH: velvetleaf (Abutilon theophrasti), read-out: Visual Growth Reduction (%) 14 Days After Application, ABUTH
[12] = AMARE: redroot pigweed (Amaranthus retroflexus), read-out: Visual Growth Reduction (%) 14 Days After Application, AMARE
[13] = BRSNN: oilseed-rape, canola (Brassica napus), read-out: Visual Growth Reduction (%) 14 Days After Application, BRSNN
[14] = CHEAL: lambsquarters (Chenopodium album), read-out: Visual Growth Reduction (%) 14 Days After Application, CHEAL
[15] = EPHHL: wild poinsettia (Euphorbia heterophylla), read-out: Visual Growth Reduction (%) 14 Days After Application, EPHHL
[16] = HELAN: sunflower (Helianthus annuus), read-out: Visual Growth Reduction (%) 14 Days After Application, HELAN
[17] = VIOTR: wild pansy (Viola tricolor), read-out: Visual Growth Reduction (%) 14 Days After Application, VIOTR

Structure (SMILES)	melting point	pest or weed control at 70 g/ha [1, 3]	pest or weed control at 140 g/ha [1, 3]	pest or weed control at 70 g/ha [1, 4]	pest or weed control at 140 g/ha [1, 4]	pest or weed control at 70 g/ha [1, 5]	pest or weed control at 140 g/ha [1, 5]	pest or weed control at 70 g/ha [1, 6]	pest or weed control at 140 g/ha [1, 6]	pest or weed control at 70 g/ha [1, 7]	pest or weed control at 140 g/ha [1, 7]	pest or weed control at 70 g/ha [1, 8]	pest or weed control at 140 g/ha [1, 8]	pest or weed control at 70 g/ha [1, 9]	pest or weed control at 140 g/ha [1, 9]	pest or weed control at 70 g/ha [1, 10]	pest or weed control at 140 g/ha [1, 10]	pest or weed control at 70 g/ha [2, 11]	pest or weed control at 140 g/ha [2, 11]	pest or weed control at 70 g/ha [2, 12]	other results
COC(=O)c1ccc(-c2nc(C(=O)OC)c(Cl)c(N)c2F)cc1 [Compound 190, methyl 4-amino-3-chloro-5-fluoro-6-(4-(methoxycarbonyl)phenyl)picolinate]	163 to 165 °C	0 to 29%	0 to 29%	0 to 29%	0 to 29%	0 to 29%	0 to 29%	0 to 29%	0 to 29%	0 to 29%	0 to 29%	0 to 29%	0 to 29%	0 to 29%	0 to 29%	0 to 29%	0 to 29%	0 to 29%	0 to 29%	0 to 29%	pest or weed control at 140 g/ha [2, 12]: 30 to 44%; pest or weed control at 70 g/ha [2, 13]: 0 to 29%; pest or weed control at 140 g/ha [2, 13]: 0 to 29%; pest or weed control at 70 g/ha [2, 14]: 60 to 74%; pest or weed control at 140 g/ha [2, 14]: 30 to 44%; pest or weed control at 70 g/ha [2, 15]: 0 to 29%; pest or weed control at 140 g/ha [2, 15]: 0 to 29%; pest or weed control at 70 g/ha [2, 16]: 0 to 29%; pest or weed control at 140 g/ha [2, 16]: 0 to 29%; pest or weed control at 70 g/ha [2, 17]: 0 to 29%; pest or weed control at 140 g/ha [2, 17]: 0 to 29%
C#Cc1ccc(-c2nc(N)c(OC)c(C(=O)O)n2)c(F)c1 [Compound 41]	155 to 165 °C (dec.)	0 to 29%	0 to 29%	0 to 29%	0 to 29%	0 to 29%	0 to 29%	0 to 29%	0 to 29%	0 to 29%	0 to 29%	0 to 29%	0 to 29%	0 to 29%	0 to 29%	0 to 29%	0 to 29%	0 to 29%	0 to 29%	0 to 29%	pest or weed control at 140 g/ha [2, 12]: 0 to 29%; pest or weed control at 70 g/ha [2, 13]: 0 to 29%; pest or weed control at 140 g/ha [2, 13]: 45 to 59%; pest or weed control at 70 g/ha [2, 14]: 0 to 29%; pest or weed control at 140 g/ha [2, 14]: 60 to 74%; pest or weed control at 70 g/ha [2, 15]: 0 to 29%; pest or weed control at 140 g/ha [2, 15]: 0 to 29%; pest or weed control at 70 g/ha [2, 16]: 60 to 74%; pest or weed control at 140 g/ha [2, 16]: 75 to 84%; pest or weed control at 70 g/ha [2, 17]: 0 to 29%; pest or weed control at 140 g/ha [2, 17]: 0 to 29%
COC(=O)c1nc(-c2ccc(C(F)(F)F)c(F)c2)c(F)c(N)c1Cl [Compound 165]	133 to 135 °C	95 to 100%	95 to 100%	60 to 74%	60 to 74%	85 to 94%	95 to 100%	0 to 29%	0 to 29%	60 to 74%	85 to 94%	60 to 74%	60 to 74%	45 to 59%	45 to 59%	75 to 84%	95 to 100%	85 to 94%	95 to 100%	85 to 94%	pest or weed control at 140 g/ha [2, 12]: 85 to 94%; pest or weed control at 70 g/ha [2, 13]: 75 to 84%; pest or weed control at 140 g/ha [2, 13]: 85 to 94%; pest or weed control at 70 g/ha [2, 14]: 95 to 100%; pest or weed control at 140 g/ha [2, 14]: 95 to 100%; pest or weed control at 70 g/ha [2, 15]: 95 to 100%; pest or weed control at 140 g/ha [2, 15]: 95 to 100%; pest or weed control at 70 g/ha [2, 16]: 95 to 100%; pest or weed control at 140 g/ha [2, 16]: 95 to 100%; pest or weed control at 70 g/ha [2, 17]: 45 to 59%; pest or weed control at 140 g/ha [2, 17]: 95 to 100%
